From US6569882B2, “Bis-sulfonamide hydroxyethyl-amino retroviral protease inhibitors” (G. D. Searle & Co., priority 1995, dated 2003)
Read-outs that look alike come from different tables or passages of the source.

Experiments:
HIV-1 in CEM cells = test: CEM cell assay: HIV inhibition in acutely infected cells, tetrazolium (MTT) colorimetric; type: cell-based; conditions: Human immunodeficiency virus 1, CCRF-CEM, 168 h
Experimental: The effectiveness of various compounds were determined in the above-described enzyme assay and in a CEM cell assay.
The HIV inhibition assay method of acutely infected cells is an automated tetrazolium based colorimetric assay essentially that reported by Pauwles et al, J. Virol. Methods, 20, 309-321 (1988). Assays were performed in 96-well tissue culture plates. CEM cells, a CD4+ cell line, were grown in RPMI-1640 medium (Gibco) supplemented with a 10% fetal calf serum and were then treated with polybrene (2 μg/ml). An 80 μl volume of medium containing 1×10^4 cells was dispensed into each well of the tissue culture plate. To each well was added a 100 μl volume of test compound dissolved in tissue culture medium (or medium without test compound as a control) to achieve the desired final concentration and the cells were incubated at 37° C. for 1 hour. A frozen culture of HIV-1 was diluted in culture medium to a concentration of 5×10^4 TCID50 per ml (TCID50=the dose of virus that infects 50% of cells in tissue culture), and a 20 μL volume of the virus sample (containing 1000 TCID50 of virus) was added to wells containing test compound and to wells containing only medium (infected control cells). Several wells received culture medium without virus (uninfected control cells). Likewise, the intrinsic toxicity of the test compound was determined by adding medium without virus to several wells containing test compound. In summary, the tissue culture plates contained the following experiments:
In experiments 2 and 4 the final concentrations of test compounds were 1, 10, 100 and 500 μg/ml. Either azidothymidine (AZT) or dideoxyinosine (ddI) was included as a positive drug control. […] DMSO was added to all control wells at an appropriate concentration.
Following the addition of virus, cells were incubated at 37° C. in a humidified, 5% CO2 atmosphere for 7 days. Test compounds could be added on days 0, 2 and 5 if desired. On day 7, post-infection, the cells in each well were resuspended and a 100 μl sample of each cell suspension was removed for assay. A 20 μL volume of a 5 mg/ml solution of 3-(4,5-dimethylthiazol-2-yl)-2,5-diphenyltetrazolium bromide (MTT) was added to each 100 μL cell suspension, and the cells were incubated for 4 hours at […] in a 5% CO2 environment. […] To each sample was added 100 μl of 10% sodium dodecylsulfate in 0.01 N HCl to lyse the cells, and samples were incubated overnight. The absorbance at 590 nm was determined for each sample using a Molecular Devices microplate reader. Absorbance values for each set of wells is compared to assess viral control infection, uninfected control cell response as well as test compound by cytotoxicity and antiviral efficacy.

HIV protease = target: T1, HIV protease (Human immunodeficiency virus type 1 group M subtype B, UniProt P04585); test: HIV protease enzyme assay (fluorescence, peptide substrate); type: biochemical; conditions: concentration reducing enzyme activity by 50%; substrate 80 μM, enzyme 12.3 nanomolar, pH 6.4
T1 construct: HIV protease is diluted in the assay buffer to a final enzyme concentration of 12.3 nanomolar, based on a molecular weight of 10,780
From the text: The compounds of the present invention are effective HIV protease inhibitors. Utilizing an enzyme assay as described below, the compounds set forth in the examples herein disclosed inhibited the HIV enzyme. The preferred compounds of the present invention and their calculated IC50 (inhibiting concentration 50%, i.e., the concentration at which the inhibitor compound reduces enzyme activity by 50%) values are shown in Table 16. The enzyme method is described below. The substrate is 2-Ile-Nle-Phe(p-NO2)-Gln-ArgNH2. The positive control is MVT-101 (Miller, M. et al, Science, 246, 1149 (1989)] The assay conditions are as follows:
20 mM sodium phosphate, pH 6.4
The above described substrate is dissolved in DMSO, then diluted 10 fold in assay buffer. Final substrate concentration in the assay is 80 μM.
HIV protease is diluted in the assay buffer to a final enzyme concentration of 12.3 nanomolar, based on a molecular weight of 10,780.
The final concentration of DMSO is 14% and the final concentration of glycerol is 18%. The test compound is dissolved in DMSO and diluted in DMSO to 10× the test concentration; 10 μl of the enzyme preparation is added, the materials mixed and then the mixture is incubated at ambient temperature for 15 minutes. The enzyme reaction is initiated by the addition of 40 μl of substrate. The increase in fluorescence is monitored at 4 time points (0, 8, 16 and 24 minutes) at ambient temperature. Each assay is carried out in duplicate wells.

[1] = CEM cells acutely infected with HIV-1, 7 days, MTT readout, read-out: EC50

## COc1ccc(S(=O)(=O)N(CC(C)C)C[C@@H](O)[C@H](Cc2ccccc2)NC(=O)[C@H](C)CS(=O)(=O)N2CCOCC2)cc1 [Example 1]
HIV-1 in CEM cells; [1]
  EC50: 32 nM
HIV protease
  IC50: 10 nM

## COc1ccc(S(=O)(=O)N(CC(C)C)C[C@@H](O)[C@H](Cc2ccccc2)NC(=O)[C@H](C)CS(=O)(=O)N2CCN(C)CC2)cc1 [Example 2]
HIV-1 in CEM cells
  EC50: 77 nM
HIV protease
  IC50: 8 nM

## COc1ccc(S(=O)(=O)N(CC(C)C)C[C@@H](O)[C@H](Cc2ccccc2)NC(=O)[C@H](C)CS(N)(=O)=O)cc1 [Example 3]
HIV-1 in CEM cells
  EC50: 40 nM
HIV protease
  IC50: 6 nM

## COc1ccc(S(=O)(=O)N(CC(C)C)C[C@@H](O)[C@H](Cc2ccccc2)NC(=O)[C@H](C)CS(=O)(=O)N(C)C)cc1 [Example 4]
HIV-1 in CEM cells
  EC50: 15 nM
HIV protease
  IC50: 4 nM

## COc1ccc(S(=O)(=O)N(CC(C)C)C[C@@H](O)[C@H](Cc2ccccc2)NC(=O)[C@H](C)CS(=O)(=O)N2CCCCC2)cc1 [Example 5]
HIV-1 in CEM cells
  EC50: 210 nM
HIV protease
  IC50: 13 nM

## COc1ccc(S(=O)(=O)N(CC(C)C)C[C@@H](O)[C@H](Cc2ccccc2)NC(=O)[C@H](C)CS(=O)(=O)N(Cc2ccccc2)C(c2ccccc2)c2ccccc2)cc1 [Example 6]
HIV protease
  IC50: 4 nM

## COc1ccc(S(=O)(=O)N(CC(C)C)C[C@@H](O)[C@H](Cc2ccccc2)NC(=O)[C@H](C)CS(=O)(=O)NCc2ccccc2)cc1 [Example 7]
HIV-1 in CEM cells
  EC50: 32 nM
HIV protease
  IC50: 3 nM

## CC(C)CN(C[C@@H](O)[C@H](Cc1ccccc1)NC(=O)[C@H](C)CS(=O)(=O)N1CCNCC1)S(=O)(=O)c1ccc2c(c1)OCO2 [Example 8]
HIV-1 in CEM cells; [1]
  EC50: 415 nM
HIV protease
  IC50: 9 nM

## CC(C)CN(C[C@@H](O)[C@H](Cc1ccccc1)NC(=O)[C@H](C)CS(=O)(=O)N1CCN(Cc2ccccc2)CC1)S(=O)(=O)c1ccc2c(c1)OCO2 [Example 9]
HIV-1 in CEM cells; [1]
  EC50: 84 nM
HIV protease
  IC50: 6 nM

## CC(C)CN(C[C@@H](O)[C@H](Cc1ccccc1)NC(=O)[C@H](C)CS(=O)(=O)N1CCN(Cc2ccccn2)CC1)S(=O)(=O)c1ccc2c(c1)OCO2 [Example 10]
HIV-1 in CEM cells; [1]
  EC50: 56 nM
HIV protease
  IC50: 10 nM

## CC(C)CN(C[C@@H](O)[C@H](Cc1ccccc1)NC(=O)[C@H](C)CS(=O)(=O)N1CCN(Cc2cccnc2)CC1)S(=O)(=O)c1ccc2c(c1)OCO2 [Example 11]
HIV protease
  IC50: 9 nM

## CC(C)CN(C[C@@H](O)[C@H](Cc1ccccc1)NC(=O)[C@H](C)CS(=O)(=O)N1CCN(Cc2ccncc2)CC1)S(=O)(=O)c1ccc2c(c1)OCO2 [Example 12]
HIV-1 in CEM cells; [1]
  EC50: 42 nM
HIV protease
  IC50: 9 nM

## CC(C)CN(C[C@@H](O)[C@H](Cc1ccccc1)NC(=O)[C@H](C)CS(=O)(=O)N1CCCC1)S(=O)(=O)c1ccc2c(c1)OCO2 [Example 13]
HIV-1 in CEM cells; [1]
  EC50: 176 nM
HIV protease
  IC50: 6 nM

## CC(C)CN(C[C@@H](O)[C@H](Cc1ccccc1)NC(=O)[C@H](C)CS(=O)(=O)N(C)c1ccccc1)S(=O)(=O)c1ccc2c(c1)OCO2 [Example 14]
HIV-1 in CEM cells; [1]
  EC50: 85 nM
HIV protease
  IC50: 4 nM

## CC(C)CN(C[C@@H](O)[C@H](Cc1ccccc1)NC(=O)[C@H](C)CS(=O)(=O)N(C)Cc1ccccc1)S(=O)(=O)c1ccc2c(c1)OCO2 [Example 15]
HIV protease
  IC50: 4 nM
